Source: PubChem BioAssay (NCI)
Where “and” joins values, the source holds several entries; their conditions need not be identical. Equal entries are not always repeated.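 In this assay, cells in 96-well plates receive the compound at five concentrations for 48 hours. Endpoints are linearly interpolated between the surrounding concentrations. Here, GI50 denotes the concentration required for 50% inhibition of growth. TGI is the concentration that stops growth completely.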

What was measured:
Test in all cases: NCI-60 cell line screen, 48 h
EKVX NSCLC = test system: EKVX NSCLC
K-562 leukemia = test system: K-562 leukemia
OVCAR-4 ovarian = test system: OVCAR-4 ovarian
SNB-19 CNS = test system: SNB-19 CNS
SK-MEL-2 melanoma = test system: SK-MEL-2 melanoma
KM12 colon = test system: KM12 colon
786-0 renal = test system: 786-0 renal
SF-539 CNS = test system: SF-539 CNS
MOLT-4 leukemia = test system: MOLT-4 leukemia
MDA-MB-435 = test system: MDA-MB-435

| SMILES | TGI (EKVX NSCLC) | TGI (K-562 leukemia) | TGI (OVCAR-4 ovarian) | TGI (SNB-19 CNS) | TGI (SK-MEL-2 melanoma) | TGI (KM12 colon) | TGI (786-0 renal) | TGI (SF-539 CNS) | TGI (MOLT-4 leukemia) | GI50 (EKVX NSCLC) | GI50 (OVCAR-4 ovarian) | GI50 (MDA-MB-435) | TGI (MDA-MB-435) | GI50 (SK-MEL-2 melanoma) | GI50 (KM12 colon) | GI50 (786-0 renal) | GI50 (SF-539 CNS) | GI50 (K-562 leukemia) | GI50 (SNB-19 CNS) | GI50 (MOLT-4 leukemia) |
| --- | --- | --- | --- | --- | --- | --- | --- | --- | --- | --- | --- | --- | --- | --- | --- | --- | --- | --- | --- | --- |
| COC[C@H](C)N=CN1CCc2ccccc2C1(Cc1ccccc1)Cc1ccccc1 | 92.6 µM | 29.3 µM | 35.6 µM | 32.5 µM | 23.6 µM | 27.3 µM | 30.3 µM | 33.6 µM | 37.9 µM |  |  |  |  |  |  |  |  |  |  |  |
| CN1CCN(Cc2cc(NC(=O)c3cccc(C#Cc4cccc5[nH]nc(N)c45)c3)cc(C(F)(F)F)c2)CC1 | 3.26 µM |  | 3.97 µM |  | 3.4 µM | 2.67 µM | 3.39 µM | 2.43 µM |  | 1.75 µM | 1.59 µM | 1.48 µM | 2.9 µM | 1.72 µM | 1.32 µM | 1.91 µM | 1.17 µM |  |  |  |
| Fc1ccc(Nc2nc3ccccc3c3occc23)cc1 | 29.5 µM | > 100 µM | 25.5 µM | 24.1 µM | 27.6 µM | 6.23 µM | 10.6 µM | 33.7 µM |  | 15.2 µM | 6 µM | 4.02 µM | 15.6 µM | 11.9 µM | 1.9 µM | 1.03 µM | 19.3 µM | 3.66 µM | 7.96 µM |  |
| CCN(CC)CCNc1ccc2nc(C)n3c4ccc(O)cc4c(=O)c1c23 |  | 13.4 µM | 3.87 µM | 3.26 µM | 20.3 µM | 17.4 µM | 10.4 µM | 16.2 µM | 0.293 µM |  |  |  |  |  |  |  |  |  |  |  |
| CCOC(=O)CNc1nnnn1C1OC(CO)C(O)C1O (stereo not drawn) | > 100 µM | > 100 µM |  |  | > 100 µM | > 100 µM | > 100 µM | > 100 µM | > 100 µM |  |  |  |  |  |  |  |  |  |  |  |
| [O-]c1c2c(nn1-c1ccc(Cl)cc1)c1ccccc1c[n+]2Cc1ccccc1 | > 100 µM | > 100 µM | > 100 µM | > 100 µM | > 100 µM | > 100 µM | > 100 µM | > 100 µM | > 100 µM |  |  |  |  |  |  |  |  |  |  |  |
| C/C(=N\NC(=O)CC(=O)N(C(=O)c1ccc(Cl)cc1)c1ccc(C)cc1)c1ccccc1O | > 100 µM | > 100 µM | 13.7 µM | > 100 µM | > 100 µM | > 100 µM | > 100 µM | > 100 µM | > 100 µM |  |  |  |  |  |  |  |  |  |  |  |
| CCCCCCCCCCCCCB(O)O | > 100 µM |  | > 100 µM | > 100 µM | > 100 µM | > 100 µM | > 100 µM | > 100 µM |  | > 100 µM and 45.5 µM | > 100 µM and 49.3 µM |  |  |  | > 100 µM and 35.8 µM |  |  |  |  |  |
| c1ccc(N/N=C2\NN=C(c3ccccc3)CS2)cc1 | 37.4 µM | 25.8 µM |  | 85.9 µM | 44 µM | 53.2 µM | 33.6 µM | 41.7 µM | 34.1 µM |  |  |  |  |  |  |  |  |  |  |  |
| CCCCN(CCCC)CCCn1cnc2ncccc2c1=O | > 100 µM | > 100 µM | > 100 µM | > 100 µM | > 100 µM | > 100 µM | > 100 µM | > 100 µM | > 100 µM |  |  |  |  |  |  |  |  |  |  |  |
| COC(=O)C(=O)C(C(=O)C(=O)Nc1cc(C)ccc1C)c1nc2ccc(C(=O)c3ccccc3)cc2[nH]c1=O (stereo not drawn) | > 100 µM | > 100 µM | > 100 µM | > 100 µM | > 100 µM | > 100 µM | > 100 µM | > 100 µM | > 100 µM |  |  |  |  |  |  |  |  |  |  |  |
| C[Si](C)(C)C(Sc1ccccc1)(Sc1ccccc1)Sc1ccccc1 | > 100 µM | > 100 µM | > 100 µM | > 100 µM | > 100 µM | > 100 µM | > 100 µM | > 100 µM | > 100 µM |  |  |  |  |  |  |  |  |  |  |  |
| O=C1C2C3C=CC(C2C(=O)N1CN1CCSCC1)C1C2C(=O)N(CN4CCSCC4)C(=O)C2C31 (stereo not drawn) | > 100 µM | > 100 µM | > 100 µM | > 100 µM | > 100 µM | > 100 µM | > 79.2 µM | > 100 µM | > 100 µM |  |  |  |  |  |  |  |  |  |  | 54.2 µM |
| C[C@@H](Oc1cc(-n2cnc3ccc(OC[C@@H](O)CO)cc32)sc1C(N)=O)c1ccccc1Cl | > 25 µM | > 25 µM | > 25 µM | > 25 µM | 11.1 µM | > 25 µM | > 25 µM | > 25 µM | 7.47 µM | 1.75 µM | 4.15 µM |  |  | 4.76 µM | 0.0641 µM | 0.669 µM | 0.133 µM | 0.0804 µM | 0.339 µM | 0.095 µM |
| COC(=O)/C(=N\NC(N)=O)C(C(=O)C=C(C)C)C(=O)C(=O)Nc1ccc(Cl)c(Cl)c1 (stereo not drawn) | > 100 µM | > 100 µM | > 100 µM | > 100 µM | > 100 µM | > 100 µM | > 100 µM | > 100 µM | > 100 µM |  |  |  |  |  |  |  |  |  |  |  |
| CC1C2CC=CC(=O)[C@@]2(C)CCC12OCCO2 (stereo partly drawn) | > 100 µM | > 100 µM | > 100 µM | > 100 µM | > 100 µM | > 100 µM | > 100 µM | > 100 µM | > 100 µM |  |  |  |  |  |  |  |  |  |  |  |
| O=c1cc(-c2ccccc2)[nH]c2cc(Cl)ccc12 | > 100 µM | 21.2 µM | > 100 µM | 6.44 µM | > 100 µM | 52.5 µM | 12.1 µM | 1.99 µM | 15.9 µM |  |  |  |  |  |  |  |  |  |  |  |
| CCOCc1cc(=O)c2c(OC)cc3c(c2o1)CCC(C)(C)O3 | > 100 µM | > 100 µM | > 100 µM |  | > 100 µM | > 100 µM | > 100 µM | > 100 µM | > 100 µM |  |  |  |  |  |  |  |  |  |  |  |
| CC1CC[P+](c2ccccc2)(c2ccccc2)CC1 | > 100 µM | > 100 µM |  | > 100 µM | > 100 µM | > 100 µM | > 100 µM | > 100 µM | > 100 µM |  |  |  |  |  |  |  |  |  |  |  |
| COc1ccc(/C=C2\c3cc(OC)c(OC)c(OC)c3CC[C@@H]2O)cc1F | > 100 µM | > 100 µM | > 100 µM | > 100 µM |  | > 100 µM | > 100 µM | 0.917 µM | > 100 µM | 0.823 µM | 1.1 µM | 0.0399 µM | 0.235 µM |  | 0.373 µM | 0.492 µM | 0.272 µM | 0.0865 µM | 0.855 µM | 0.956 µM |
